Article PMC6627487, “Butenolide Derivatives with α-Glucosidase Inhibitions from the Deep-Sea-Derived Fungus Aspergillus terreus YPGA10” (Marine Drugs, 2019)
Read-outs that look alike come from different tables or passages of the source.

Target: α-glucosidase from Saccharomyes cerevisiae (Saccharomyces cerevisiae, UniProt P53341)
Assay: α-Glucosidase inhibition assay (PNPG substrate, OD 405 nm)
Type: biochemical
Details: for inhibition at 100 µM: read-out: %Inhibition (100 μM); for inhibitory activity against α-glucosidase, in words: at 100 μM; for inhibition at 50 µM: read-out: %Inhibition (50 μM)
Experimental: The α-glucosidase inhibitory effect was assessed using a previously described method with slight modification. 0.2 U of α-glucosidase from Saccharomyes cerevisiae purchased from Sigma-Aldrich (St. Louis, MO, USA) was diluted to 0.1 M phosphate buffer consisting of Na2HPO4 and NaH2PO4 (pH 6.8). The assay was conducted in a 200 μL reaction system containing 148 μL of the buffer, 25 μL of diluted enzyme solution, and 2 μL of DMSO or sample (dissolved in DMSO). After 20 min of incubation in the 96-well plates at 37 °C, 25 μL of 0.4 mM 4-nitrophenyl-[…]-D-glucopyranoside (PNPG, Aladdin, Shanghai, China) was added as a substrate to start the enzymatic reaction. The plate was incubated for an additional 15 min at 37 °C, followed by the measurement of the optical density (OD). The final concentrations of tested compounds were between 0.39 and 100 μM. The OD was measured at an absorbance wavelength of 405 nm using a Microplate Reader (Tecan, Switzerland).

[1] = α-glucosidase, compound at 100 μM

Chain of α-glucosidase from Saccharomyes cerevisiae (P53341 whole entry): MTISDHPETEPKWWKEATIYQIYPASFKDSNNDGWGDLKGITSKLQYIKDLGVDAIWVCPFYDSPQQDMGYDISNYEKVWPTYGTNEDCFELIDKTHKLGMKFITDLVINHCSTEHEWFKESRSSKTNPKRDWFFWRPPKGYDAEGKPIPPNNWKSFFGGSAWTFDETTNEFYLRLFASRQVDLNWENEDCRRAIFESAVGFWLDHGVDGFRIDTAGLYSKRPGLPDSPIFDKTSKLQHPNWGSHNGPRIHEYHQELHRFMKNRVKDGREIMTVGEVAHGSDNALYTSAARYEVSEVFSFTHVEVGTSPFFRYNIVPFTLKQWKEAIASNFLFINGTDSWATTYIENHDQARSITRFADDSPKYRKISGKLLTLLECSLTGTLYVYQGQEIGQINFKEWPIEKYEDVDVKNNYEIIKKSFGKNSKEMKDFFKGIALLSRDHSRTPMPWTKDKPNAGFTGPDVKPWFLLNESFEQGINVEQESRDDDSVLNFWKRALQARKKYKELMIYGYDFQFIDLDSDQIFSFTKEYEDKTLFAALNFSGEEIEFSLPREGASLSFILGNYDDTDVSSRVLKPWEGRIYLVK

Compound	inhibition at 100 µM [1] [%]	inhibition at 100 µM [%]	inhibitory activity against α-glucosidase, in words	inhibition at 50 µM [%]
COC(=O)[C@]1(Cc2ccc3c(c2)C[C@H](C(C)(C)O)O3)OC(=O)C(O)=C1c1ccccc1 [Compound 1, Aspernolide N]	18.6	–	–	–
CCOC(=O)[C@]1(Cc2ccc3c(c2)C[C@H](C(C)(C)O)O3)OC(=O)C(O)=C1c1ccc(O)cc1 [Compound 2, Aspernolide O]	23.2	–	–	–
CCOC(=O)[C@]1(Cc2ccc3c(c2)CC(O)C(C)(C)O3)OC(=O)C(O)=C1c1ccc(O)cc1 (stereo partly shown) [Compound 3, Aspernolide P]	26.4	–	–	–
COC(=O)[C@]1(Cc2ccc3c(c2)C[C@H](C(C)(C)O)O3)OC(=O)C(O)=C1c1ccc(O)cc1 [Compound 4, butyrolactone IV]	–	37.3	–	–
COC(=O)[C@]1(Cc2ccc3c(c2)C[C@H](O)C(C)(C)O3)OC(=O)C(O)=C1c1ccc(O)cc1 [Compound 5, butyrolactone V]	21.6	–	negligible inhibitory activity	–
COC(=O)[C@]1(Cc2ccc(O)c(CC=C(C)C)c2)OC(=O)C(O)=C1c1ccc(O)cc1 [Compound 6, butyrolactone I]	–	100	–	89.4
CCOC(=O)[C@]1(Cc2ccc(O)c(CC=C(C)C)c2)OC(=O)C(O)=C1c1ccc(O)cc1 [Compound 7, butyrolactone VII]	–	100	–	98.7
COC(=O)[C@]1(Cc2ccc3c(c2)CCC(C)(C)O3)OC(=O)C(O)=C1c1ccc(O)cc1 [Compound 8, aspernolide A]	–	89.2	significant inhibition	–
COC(=O)[C@]1(Cc2ccc3c(c2)C=CC(C)(C)O3)OC(=O)C(O)=C1c1ccc(O)cc1 [Compound 9, aspernolide E]	90.4	–	–	–
